Reference: patent publication US12428406B2 (PMV Pharmaceuticals, Inc., priority 2019, dated 2025)

Target: T1, p53 Y220C (Homo sapiens, UniProt P04637, Y220C)
T1 construct: The recombinant protein was a truncation mutant containing only amino acids 94-312 of p53; made in house; host or cells: E. coli
Assay: In vitro DNA binding activity assay (HTRF / TR-FRET): stabilization of p53 Y220C and increase of its DNA binding activity
Type: biochemical
Details: recombinant His-tagged p53 Y220C DNA binding domain (aa 94-312), biotin-labeled consensus DNA, incubated at 27° C. or 29° C. for 60 min
Method in brief: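 E. coli His-p53 Y220C + biotin consensus DNA; anti-His-APC/SA-Eu TR-FRET. SC150 vs no-compound.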

T1 sequence (P04637 94-312, change not shown): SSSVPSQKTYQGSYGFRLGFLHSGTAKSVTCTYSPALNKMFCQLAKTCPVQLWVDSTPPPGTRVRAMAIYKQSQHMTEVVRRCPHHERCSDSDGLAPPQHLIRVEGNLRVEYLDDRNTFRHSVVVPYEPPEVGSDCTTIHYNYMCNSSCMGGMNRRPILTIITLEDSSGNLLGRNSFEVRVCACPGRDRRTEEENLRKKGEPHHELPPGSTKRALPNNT

SC150 (concentration of the compound required to increase the DNA binding activity by 50%), + (+ = 0 μM ≤ SC150 < 0.05 μM):
COCCN1CC[C@@H](Nc2cccc3c2cc(C#CCNc2ccc(C(=O)OC)cc2OC)n3CC(F)(F)F)[C@@H](F)C1 [Compound 897A]
COCCN1CC[C@@H](Nc2cccc3c2cc(C#CCNc2ccc(C(=O)O)cc2OC)n3CC(F)(F)F)[C@@H](F)C1 [Compound 898A]
COC(=O)c1ccc(NCC#Cc2cc3c(N[C@@H]4CCN(CCO)C[C@@H]4F)cccc3n2CC(F)(F)F)c(OC)c1 [Compound 899A, methyl 4-{[3-(4-{[(3S,4R)-3-fluoro-1-(2-hydroxyethyl)piperidin-4-yl]amino}-1-(2,2,2-trifluoroethyl)-1H-indol-2-yl)prop-2-yn-1-yl]amino}-3-methoxybenzoate]
COC(=O)c1ccc(NCC#Cc2cc3c(N[C@@H]4CCN(CC(N)=O)C[C@@H]4F)cccc3n2CC(F)(F)F)c(OC)c1 [Compound 901A, methyl 4-{[3-(4-{[(3S,4R)-1-(carbamoylmethyl)-3-fluoropiperidin-4-yl]amino}-1-(2,2,2-trifluoroethyl)-1H-indol-2-yl)prop-2-yn-1-yl]amino}-3-methoxybenzoate]
COCCN1CC[C@H](Nc2cccc3c2cc(C#CCNc2ccc(C(=O)OC)cc2OC)n3CC(F)(F)F)[C@H](F)C1 [Compound 902A]
COC(=O)c1ccc(NCC#Cc2cc3c(N[C@H]4CCN(CCO)C[C@H]4F)cccc3n2CC(F)(F)F)c(OC)c1 [Compound 903A, methyl 4-{[3-(4-{[(3R,4S)-3-fluoro-1-(2-hydroxyethyl)piperidin-4-yl]amino}-1-(2,2,2-trifluoroethyl)-1H-indol-2-yl)prop-2-yn-1-yl]amino}-3-methoxybenzoate]
COCCN1CC[C@H](Nc2cccc3c2cc(C#CCNc2ccc(C(=O)O)cc2OC)n3CC(F)(F)F)[C@H](F)C1 [Compound 904A]
COC(=O)c1ccc(NCC#Cc2cc3c(N[C@H]4CCN(C[C@@H](C)O)C[C@H]4F)cccc3n2CC(F)(F)F)c(OC)c1 [Compound 905A, methyl 4-{[3-(4-{[(3R,4S)-3-fluoro-1-(2-hydroxypropyl)piperidin-4-yl]amino}-1-(2,2,2-trifluoroethyl)-1H-indol-2-yl)prop-2-yn-1-yl]amino}-3-methoxybenzoate]
COc1cc(C(=O)N2CC3(COC3)C2)ccc1NCC#Cc1cc2c(N[C@@H]3CCN(C)C[C@@H]3F)cccc2n1CC(F)(F)F [Compound 906A, N-[(3S,4R)-3-fluoro-1-methylpiperidin-4-yl]-2-{3-[(2-methoxy-4-{2-oxa-6-azaspiro[3.3]heptane-6-carbonyl}phenyl)amino]prop-1-yn-1-yl}-1-(2,2,2-trifluoroethyl)-1H-indol-4-amine]
COc1cc(C(=O)N2CC3(CCOCC3)C2)ccc1NCC#Cc1cc2c(N[C@@H]3CCN(C)C[C@@H]3F)cccc2n1CC(F)(F)F [Compound 907A, N-[(3S,4R)-3-fluoro-1-methylpiperidin-4-yl]-2-{3-[(2-methoxy-4-{7-oxa-2-azaspiro[3.5]nonane-2-carbonyl}phenyl)amino]prop-1-yn-1-yl}-1-(2,2,2-trifluoroethyl)-1H-indol-4-amine]
COc1cc(C(=O)O)ccc1NCC#Cc1cc2c(N[C@@H]3CCN(CCO)C[C@@H]3F)cccc2n1CC(F)(F)F [Compound 908A, 4-{[3-(4-{[(3S,4R)-3-fluoro-1-(2-hydroxyethyl)piperidin-4-yl]amino}-1-(2,2,2-trifluoroethyl)-1H-indol-2-yl)prop-2-yn-1-yl]amino}-3-methoxybenzoic acid]
COc1cc(C(=O)N2CCOCC2)ccc1NCC#Cc1cc2c(N[C@@H]3CCN(C)C[C@@H]3F)cccc2n1CC(F)(F)F [Compound 909A]
COc1cc(C(=O)O)ccc1NCC#Cc1cc2c(N[C@H]3CCN(CCO)C[C@H]3F)cccc2n1CC(F)(F)F [Compound 912A, 4-{[3-(4-{[(3R,4S)-3-fluoro-1-(2-hydroxyethyl)piperidin-4-yl]amino}-1-(2,2,2-trifluoroethyl)-1H-indol-2-yl)prop-2-yn-1-yl]amino}-3-methoxybenzoic acid]
COC(=O)c1ccc(NCC#Cc2cc3c(N[C@@H]4CCN(CC(=O)N(C)C)C[C@@H]4F)cccc3n2CC(F)(F)F)c(OC)c1 [Compound 913A, methyl 4-{[3-(4-{[(3S,4R)-1-[(dimethylcarbamoyl)methyl]-3-fluoropiperidin-4-yl]amino}-1-(2,2,2-trifluoroethyl)-1H-indol-2-yl)prop-2-yn-1-yl]amino}-3-methoxybenzoate]
COC(=O)c1ccc(NCC#Cc2cc3c(N[C@H]4CCN(CC(=O)N(C)C)C[C@H]4F)cccc3n2CC(F)(F)F)c(OC)c1 [Compound 914A, methyl 4-{[3-(4-{[(3R,4S)-1-[(dimethylcarbamoyl)methyl]-3-fluoropiperidin-4-yl]amino}-1-(2,2,2-trifluoroethyl)-1H-indol-2-yl)prop-2-yn-1-yl]amino}-3-methoxybenzoate]
COC(=O)c1ccc(NCC#Cc2cc3c(N[C@H]4CCN(CC(N)=O)C[C@H]4F)cccc3n2CC(F)(F)F)c(OC)c1 [Compound 915A, methyl 4-{[3-(4-{[(3R,4S)-1-(carbamoylmethyl)-3-fluoropiperidin-4-yl]amino}-1-(2,2,2-trifluoroethyl)-1H-indol-2-yl)prop-2-yn-1-yl]amino}-3-methoxybenzoate]
COc1cc(C(=O)Nc2nccs2)ccc1NCC#Cc1cc2c(N[C@@H]3CCN(C)C[C@@H]3F)cccc2n1CC(F)(F)F [Compound 917A]
COc1cc(C(=O)N2CCC(O)CC2)ccc1NCC#Cc1cc2c(N[C@@H]3CCN(C)C[C@@H]3F)cccc2n1CC(F)(F)F [Compound 919A]
COc1cc(C(=O)O)ccc1NCC#Cc1cc2c(N[C@@H]3CCN(CC(=O)N(C)C)C[C@@H]3F)cccc2n1CC(F)(F)F [Compound 920A, 4-{[3-(4-{[(3S,4R)-1-[(dimethylcarbamoyl)methyl]-3-fluoropiperidin-4-yl]amino}-1-(2,2,2-trifluoroethyl)-1H-indol-2-yl)prop-2-yn-1-yl]amino}-3-methoxybenzoic acid]
